Reference: patent publication EP0808325B1, “[…] […] SERIES FOR […] GABA RECEPTOR” (priority 1994, dated 1996)

Assays:
[1] = test system: metrazol induced convulsions; test: animal or person; assay type: in vivo, mice; conditions: for % Protected: 10 mg/kg
Protocol: Experiments were also performed to determine the physiological relevance of neuroactive steroid and GABA receptor interactions by assessing the ability of the compounds of and used in the invention to prevent metrazol induced convulsions in mice. […] The time to onset of myoclonus (presence of forelimb clonic activity) induced by metrazol was determined by observing each mouse for a period of 30 minutes. […]
The anticonvulsant tests are similar to that described above. […] The number of animals with tonic and/or clonic convulsions was recorded. In the maximal electroshock test, 50 mA of current at 60 Hz was delivered through corneal electrodes for 200 msec to induce tonic seizure. The ability of compounds to abolish the tonic component was defined as the endpoint. General CNS depression potential was determined by a rotorod test 10 minutes after the injection of compounds where the number of mice staying on a rotating (6 rpm) rod for 1 minute in one of the three trials was determined. […]

GR complex = test: modulation of [35S]TBPS binding in rat cerebral cortex P2 homogenate; design: species or system Sprague-Dawley rats; IMAX: unit not given here; conditions: for IC50: concentration of compounds to inhibit 50% of control [35S]TBPS binding, 2 nM [35S]TBPS, 25°C, 90 minutes, no unit printed; for IMAX: maximum inhibition of [35S]TBPS binding, I* = Inactive
Protocol: We performed several experiments to determine the nature of the modulation of [^35S]TBPS as affected by the compounds of the invention.
These procedures were performed as follows:
Brains from male Sprague-Dawley rats were removed immediately following sacrifice and the cerebral cortices dissected over ice. […] Briefly, the cortices were gently homogenized in 0.32 M sucrose followed by centrifugation at 1000 x g for 10 minutes. The supernatant was collected and centrifuged at 9000 x g for 20 minutes. The resultant P2 pellet was suspended as a 10% (original wet weight/volume) suspension in 50 mM Na/K phosphate buffer (pH 7.4) 200 mM NaCI to form the homogenate.
One hundred microliter […] aliquots of the P2 homogenate (0.5 milligrams (mg) protein) were incubated with 2 nanomolar (nM) [^35S]TBPS (70-110 curies/millimole;, New England Nuclear, Boston, MA) in the presence or absence of the naturally occurring steroids or their synthetic derivatives to be tested. The tested compounds were dissolved in dimethylsulfoxide (Baker Chem. Co., Phillipsbury, NJ) and added to the incubation mixture in 5 µL aliquots. The incubation mixture was brought to a final volume of 1 mL with buffer. Nonspecific binding was defined as binding in the presence of […]. The effect and specificity of GABA (Sigma Chem. Co., St. Louis, MO) was evaluated by performing all assays in the presence of GABA plus (+)bicuculline (Sigma Chem. Co.). Incubations maintained at 25°C for 90 minutes (steady state conditions) were terminated by rapid filtration through glass fiber filters (No. 32, Schleicher and Schuell, Keene, NH). Filter-bound radioactivity was quantitated by liquid scintillation spectrophotometry.
Various compounds were screened to determine their potential as modulators of [^35S]TBPS binding in vitro. These assays were performed in accordance with the above discussed procedures. […] It is an indication of a compound's in vitro potency. Maximum inhibition is an indication of a compound's in vitro efficacy.

[2] = 60 mg/kg, 1 hr, IP, anti-metrazol
[3] = IP, 50% hpbcd, 10 minutes prior to metrazol (85 mg/kg)
[4] = listed as 3β-(cyclopropyl)ethynyl-3α-hydroxy-5β-pregnan-20-one

| Structure (SMILES) | IC50 (GR complex) [nM] | IMAX (GR complex) | also measured |
| --- | --- | --- | --- |
| CC(=O)C1CCC2C3CCC4CC(OC(=O)c5ccccc5)CCC4(C)C3CCC12C (stereo not drawn) [Phenyl] | – | – | % Protection [1, 2]: 33% |
| CC(=O)C1CCC2C3CCC4CC(OC(=O)C(C)C)CCC4(C)C3CCC12C (stereo not drawn) [Example 2-Propyl] | – | – | % Protection [1, 2]: 75% |
| COC(=O)CCC(=O)OCC(=O)C1CCC2C3CCC4CC(O)(C(F)(F)F)CCC4(C)C3CCC12C (stereo not drawn) [3α,21-dihydroxy-3β-trifluoromethyl-5β-pregnan-20-one methyl 21-succinate] | 480 | 86 | – |
| CCCCC(=O)OC1CCC2(C)C(CCC3C2CCC2(C)C(C(C)=O)CCC32)C1 (stereo not drawn) [Butyl] | – | – | % Protection ([1]; mouse, in vivo): 33% |
| C[C@]12C[C@H](O)[C@H]3[C@@H](CCC4=CC(=O)CC[C@@]43C)[C@@H]1CC[C@@H]2C(=O)CO [corticosterone, reference compound] | > 1000 | I* | – |
| C[C@@]1(O)CC[C@@]2(C)[C@@H](CC[C@@H]3[C@@H]2CC[C@]2(C)[C@@H](C(=O)CO)CC[C@@H]32)C1 [3α,21-dihydroxy-3β-methyl-5α-pregnan-20-one] | 258 | 96 | % Protected [1, 3]: 87.5% |
| CCCCC#C[C@@]1(O)CC[C@@]2(C)[C@H](CC[C@@H]3[C@@H]2CC[C@]2(C)[C@@H](C(C)=O)CC[C@@H]32)C1 [3β-(1-hexynyl)-3α-hydroxy-5β-pregnan-20-one] | – | – | % Protected [1, 3]: 37.5% |
| C#C[C@@]1(O)CC[C@@]2(C)[C@H](CC[C@@H]3[C@@H]2CC[C@]2(C)[C@@H]([C@@H](C)O)CC[C@@H]32)C1 [3α,20β-dihydroxy-3β-ethynyl-5β-pregnane, 3β-Ethynyl-3α,20β-dihydroxy-5β-pregnane] | 688 | 77 | % Protected [1, 3]: 25% |
| CC(=O)[C@H]1CC[C@H]2[C@@H]3CC[C@@H]4C[C@@](O)(C#CC5CC5)CC[C@]4(C)[C@H]3CC[C@]12C [3β-Cyclopropylethynyl-3α-hydroxy-5β-pregnan-20-one] | 22 | 94 | IC50 (GR complex; [4]): 32 nM; IMAX (GR complex; [4]): 97; % Protected [1, 3]: 87.5% |
| CCCC(CCC)C(=O)OC1CCC2(C)C(CCC3C2CCC2(C)C(C(C)=O)CCC32)C1 (stereo not drawn) [Example 4-Heptyl] | – | – | % Protection ([1]; 60 mg/kg, IP, 4 hour, anti-metrazol): 16 (4 hour) % |
| CC(=O)C1CCC2C3CCC4CC(OC(=O)c5ccc(Cl)cc5)CCC4(C)C3CCC12C (stereo not drawn) [4-Chlorophenyl] | – | – | % Protection [1, 2]: 50% |
| CC(O)C1CCC2C3CCC4CC(C)(O)CCC4(C)C3CCC12C (stereo not drawn) [3α,20β-dihydroxy-3β-methyl-5β-pregnane] | 455 | 105 | – |
| C[C@@]1(O)CC[C@@]2(C)[C@@H](CC[C@@H]3[C@@H]2CC[C@]2(C)[C@@H](C(=O)COC(=O)CCC(=O)O)CC[C@@H]32)C1 [3α,21-dihydroxy-3β-methyl-5α-pregnan-20-one 21-hemisuccinate] | 241 | 92 | % Protected ([1]; IP, water): 37.5% |
| CCC(=O)[C@H]1CC[C@H]2[C@@H]3CC[C@@H]4C[C@H](O)CC[C@]4(C)[C@H]3CC[C@]12C [3α-hydroxy-21-methyl-5β-pregnan-20-one] | 78 | 100 | – |
| CC(=O)[C@H]1CC[C@H]2[C@@H]3CC[C@@H]4C[C@](C)(O)CC[C@@H]4[C@H]3CC[C@]12C [3α-hydroxy-3β-methyl-5β-19-nor-pregnan-20-one] | 26 | 94 | – |
| COc1ccc(C(=O)OC2CCC3(C)C(CCC4C3CCC3(C)C(C(C)=O)CCC43)C2)cc1 (stereo not drawn) [4-Methoxyphenyl] | – | – | % Protection [1, 2]: 17% |
| CC(=O)OC1CCC2(C)C(CCC3C2CCC2(C)C(C(C)=O)CCC32)C1 (stereo not drawn) [Methyl] | – | – | % Protection [1, 2]: 25% |
| CC(=O)C1CCC2C3CCC4CC(OC(=O)c5cccnc5)CCC4(C)C3CCC12C (stereo not drawn) [Example 3-Pyridyl] | – | – | % Protection ([1]; 60 mg/kg, IP, 20 hour, anti-metrazol): 50 (20 hour) % |

| Structure (SMILES) | IC50 (GR complex) [nM] | IMAX (GR complex) | also measured |
| --- | --- | --- | --- |
| C#CC1(O)CCC2(C)C(CCC3C2CCC2(C)C(C(C)O)CCC32)C1 (stereo not drawn) [3α,20α-dihydroxy-3β-ethynyl-5α-pregnane, 3β-Ethynyl-3α,20α-dihydroxy-5α-pregnane] | 202 | 56 | – |
| C=C[C@@]1(O)CC[C@@]2(C)[C@@H](CC[C@@H]3[C@@H]2CC[C@]2(C)[C@@H](C(=O)CO)CC[C@@H]32)C1 [3α,21-dihydroxy-3β-ethenyl-5α-pregnan-20-one] | 288 | 101 | – |
| CC12CCC(O)(C(F)(F)F)CC1CCC1C2CCC2(C)C(C(=O)CBr)CCC12 (stereo not drawn) [21-bromo-3α-hydroxy-3β-trifluoromethyl-5β-pregnan-20-one] | 1530 | 102 | – |
| C[C@]12CC[C@@H](O)C[C@@H]1CC[C@@H]1[C@@H]2CC[C@]2(C)[C@@H](C(=O)COC(=O)CCC(=O)O)CC[C@@H]12 [3α,21-dihydroxy-5α-pregnan-20-one 21-hemisuccinate] | 117 | 91 | – |
| CC(=O)C1=CC[C@H]2[C@@H]3CC[C@@H]4C[C@](C)(O)CC[C@]4(C)[C@H]3CC[C@]12C [3α-hydroxy-3β-methyl-5β-pregn-16-en-20-one] | 955 | 100 | – |
| CC(=O)[C@H]1CC[C@H]2[C@@H]3CC[C@H]4C[C@](C)(O)CC[C@]4(C)[C@H]3C(=O)C[C@]12C [3α-hydroxy-3β-methyl-5α-pregnane-11,20-dione] | 958 | 100 | – |
| CC(O)C1CCC2C3CCC4CC(C)(O)CCC4(C)C3CCC12C (stereo not drawn) [3α,20β-dihydroxy-3β-methyl-5α-pregnane] | 924 | 99 | – |
| CC(=NCCO)[C@H]1CC[C@H]2[C@@H]3CC[C@H]4C[C@](C)(O)CC[C@]4(C)[C@H]3CC[C@]12C [N-(3α-hydroxy-3β-methyl-5α-pregnan-20-ylidine)ethanolamine] | 101 | 93 | – |
| CCC(=O)[C@H]1CC[C@H]2[C@@H]3CC[C@H]4C[C@](C)(O)CC[C@]4(C)[C@H]3CC[C@]12C [3α-hydroxy-3β,21-dimethyl-5α-pregnan-20-one] | 89 | 85 | – |
| CC(=O)C1CCC2C3CCC4CC(O)(C#CCCCCl)CCC4(C)C3CCC12C (stereo not drawn) [3β-(5'-chloropentyn-1'-yl)-3α-hydroxy-5β-pregnan-20-one] | 44 | 98 | – |
| CC(=O)[C@H]1CC[C@H]2[C@@H]3CC[C@H]4C[C@](C)(O)CC[C@]4(C)[C@H]3C=C[C@]12C [3α-hydroxy-3β-methyl-5α-pregn-11-en-20-one] | 242 | 76 | – |
| CC(=O)[C@H]1CC[C@H]2[C@@H]3CCC4=CC(=O)CC[C@]4(C)[C@H]3CC[C@]12C [progesterone, reference compound] | > 1000 | I* | – |
| C=C[C@@]1(O)CC[C@@]2(C)[C@@H](CC[C@@H]3[C@@H]2CC[C@]2(C)[C@@H](C(=O)COC(=O)CCC(=O)O)CC[C@@H]32)C1 [3α,21-dihydroxy-3β-ethenyl-5α-pregnan-20-one 21-hemisuccinate] | 377 | 89 | – |
| CC(C)(O)[C@H]1CC[C@H]2[C@@H]3CC[C@@H]4C[C@](C)(O)CC[C@]4(C)[C@H]3CC[C@]12C [3α,20-Dihydroxy-3β,20-dimethyl-5β-pregnane] | – | – | % Protected ([1]; IP, micro soln.): 22.2% |
| C#CC1(O)CCC2(C)C(CCC3C2CCC2(C)C(C(C)O)CCC32)C1 (stereo not drawn) [3α,20α-dihydroxy-3β-ethynyl-5β-pregnane, 3β-Ethynyl-3α,20α-dihydroxy-5β-pregnane] | 557 | 98 | – |
| CC(C)CCC[C@@H](C)[C@H]1CC[C@H]2[C@@H]3CC=C4C[C@@H](O)CC[C@]4(C)[C@H]3CC[C@]12C [cholesterol, reference compound] | > 1000 | I* | – |
| CCCC(=O)O[C@@H]1CC[C@@]2(C)[C@@H](CC[C@@H]3[C@@H]2CC[C@]2(C)[C@@H](C(C)=O)CC[C@@H]32)C1 [Propyl] | – | – | % Protection [1, 2]: 75% |
| CCC(=O)OC1CCC2(C)C(CCC3C2CCC2(C)C(C(C)=O)CCC32)C1 (stereo not drawn) [Ethyl] | – | – | % Protection [1, 2]: 75% |
